Experimental data from US20260209297A1, “ANTIMICROBIAL PEPTIDES AND MODIFICATIONS THEREOF” (priority 2022, published 2026).
Values after ≈ are worked out from the molar mass of the structure shown. Where two headings read alike, the source gives them in different places. Positions of bridges follow the written chain, without caps; N, C: chain ends. Residues, ends and D or L forms follow the SMILES beside them. No end group written: not given here.

Experiments:
Tricophyton rubrum = assay: MIC against human nail pathogens; conditions: isolate 23014; Table 13
[1] = test system: Tricophyton metagrophytes; assay: MIC against human nail pathogens; conditions: isolate 26103; Table 13
P. capsici [2] = assay: Disease symptom reduction on tomato leaves; format: in vivo; conditions: compared with GMA4C_AC
From the text: Antifungal activity in planta.

F. graminearum = format: cell-based, Fusarium graminearum; conditions: in vitro, low cationic conditions
Coccidioides sp. = format: cell-based; conditions: Table 8
B. cinerea = assay: MIC antifungal assay in SFM culture media (with or without added salts); format: cell-based, Botrytis cinerea
L. monocytogenes F5244 = assay: Antibacterial growth inhibition in Mueller-Hinton media (OD600); format: cell-based, Listeria monocytogens; conditions: 37° C. overnight
P. capsici [3] = assay: MIC antifungal assay in SFM culture media; format: cell-based; conditions: in vitro, low cationic conditions
F. oxysporum = assay: MIC antifungal assay in SFM culture media; format: cell-based; conditions: in vitro, low cationic conditions
C. parapsilosis = assay: MIC, CLSI M27/M38, half-strength potato dextrose broth; format: cell-based, Candida parapsilosis; conditions: C. parapsilosis ATCC 22019; Table 8
Experimental: MICs were determined at 24-72 hours.

[4] = test system: Enterotoxigenic E. coli-F4; assay: Antibacterial growth inhibition in Mueller-Hinton media (OD600); format: cell-based; conditions: 37° C. overnight
Experimental: Salmonella typhimurium var. Copenhagen, Enterotoxigenic E. coli-F4 and Listeria monocytogens (F5244) strains were grown overnight on an LB agar plate at 37_C. A small number of bacteria was scraped from the plate and added to Mueller-Hinton (MH) growth media and grown to log phase. Cells were diluted to 1-3×10^6 CFU/mL and 50 μl were added to each well in a polypropylene 96-well plate. Synthesized peptide GMA4C_V1A was diluted into 0.2% BSA, 0.01% acetic acid solution and added to the concentration of 0.2, 0.4, 0.80, 1.6, 3.25, 7.5, 15, 30 and 60 and 120 µM. Then, 50 μl of each peptide solution was added to 50 μl of bacterial cells. Plates were parafilmed and incubated at 37° C. overnight. The concentrations at which bacterial growth inhibition was determined based on the OD600 nm value at each concentration relative to the OD600 nm value of MH medium alone and that of bacterial growth in MH medium without any peptide.

Candida auris = conditions: Table 8
[5] = test system: Salmonella typhimurium var. Copenhagen; assay: Antibacterial growth inhibition in Mueller-Hinton media (OD600); format: cell-based; conditions: 37° C. overnight
Candida albicans = conditions: Table 8

OeDef1_V3: OeDef1 variant, printed with SEQ ID NO: 769 in Table 13 (GACLKNRHSKHYGWFWYYRHCY-NH2; disulfide 3-21 (inferred))
MIC in μM Tricophyton rubrum (23014) (Tricophyton rubrum): 4.0 µM | MIC in μM Aspergillus fumigatus (36843) (Aspergillus fumigatus; isolate 36843, Table 13): >7.9 µM | MIC in μM Tricophyton metagrophytes (26103) [1]: 4.0 µM

CC[C@H](C)[C@H](NC(=O)[C@H](CCCNC(=N)N)NC(=O)[C@@H](NC(=O)[C@H](CS)NC(=O)[C@H](Cc1ccccc1)NC(=O)[C@H](CS)NC(=O)[C@H](CCCNC(=N)N)NC(=O)[C@H](CCCNC(=N)N)NC(=O)[C@H](CCCNC(=N)N)NC(=O)[C@H](Cc1ccccc1)NC(=O)CNC(=O)[C@H](CCCCN)NC(=O)[C@H](CS)NC(=O)[C@H](CCCNC(=N)N)NC(=O)CNC(=O)CN)[C@@H](C)O)C(=O)N[C@@H](CS)C(N)=O [GMA4C_V1A] (H-GGRCKGFRRRCFCTRIC-NH2; N-terminus assumed)
reducing disease symptoms caused by P. capsici (P. capsici [2]): more effective | antifungal activity relative to the wild-type GMA4C_AC control, F. graminearum (F. graminearum): equivalent | MIC values (μg/ml) 100% (Coccidioides sp.; Coccidioides sp. Cocci1): 8 µg/mL (≈ 3.96 µM) | MIC values (μg/ml) 100% (Coccidioides sp.; Coccidioides sp. Cocci2): 4 µg/mL (≈ 1.98 µM) | MIC values (μg/ml) 100% (Coccidioides sp.; Coccidioides sp. DI17-143): 8 µg/mL (≈ 3.96 µM) | fungal growth inhibition at 6 μM (B. cinerea; B. cinerea, in presence of 2 mM CaCl2, 6 μM): inhibit fungal growth | potency of activity relative to GMA4C_AC (B. cinerea; B. cinerea, in presence of 100 mM NaCl or 100 mM KCl): 2 fold | antifungal activity relative to the wild-type GMA4C_AC control, B. cinerea (B. cinerea; in vitro, low cationic conditions): equivalent | MIC values (μg/ml) 100% (Aspergillus fumigatus; Aspergillus fumigatus AF293, Table 8): 32 µg/mL (≈ 15.9 µM) | Concentrations (in μM) at which growth inhibition was observed, L. monocytogenes F5244 (L. monocytogenes F5244): 15 to 30 µM | antifungal activity relative to the wild-type GMA4C_AC control, P. capsici (P. capsici [3]): equivalent | antifungal activity relative to the wild-type GMA4C_AC control, F. oxysporum (F. oxysporum): equivalent | MIC values (μg/ml) 100% (C. parapsilosis): 4 µg/mL (≈ 1.98 µM) | Concentrations (in μM) at which growth inhibition was observed, Enterotoxigenic E. coli-F4 [4]: 7.5 to 60 µM | MIC values (μg/ml) 100% (Candida auris; Candida auris DI17-46): 8 µg/mL (≈ 3.96 µM) | MIC values (μg/ml) 100% (Candida auris; Candida auris DI17-47): 8 µg/mL (≈ 3.96 µM) | MIC values (μg/ml) 100% (Candida auris; Candida auris DI17-48): 8 µg/mL (≈ 3.96 µM) | Concentrations (in μM) at which growth inhibition was observed, S. Typhimurium var. Copenhagen [5]: 15 to 60 µM | MIC values (μg/ml) 100% (Candida albicans; Candida albicans ATCC 90028): 8 µg/mL (≈ 3.96 µM) | MIC values (μg/ml) 100% (Candida albicans; Candida albicans CA3): 8 µg/mL (≈ 3.96 µM) | MIC values (μg/ml) 100% (Candida albicans; Candida albicans SC5314): 8 µg/mL (≈ 3.96 µM)
